Common to all, as to format: cell-based, human
For experiment [1], the system named is hEAAT2 mRNA. The experiment can be described thus: Northern blot of hEAAT2 mRNA in PHFA treated with modulators. Conditions: for hEAAT2 mRNA expression: 7-day treatment, EGF 30 ng/ml, TGF-α 30 ng/ml, dbcAMP 200 μM, bromo-cAMP 100 μM, TNF-α 200 U/ml. The protocol:
(§1) FIG. 4A-D. Effect of modulators of hEAAT2 activity on hEAAT2 expression and hEAAT2 promoter activity in PHFA. A. A Northern analysis of hEAAT2 and GAPDH mRNA expression following treatment with EGF (30 ng/ml), TGF-α (30 ng/ml), dbcAMP (200 μM, bromo-cAMP (100 μM) or TNF-α (200 U/ml) for 7 days. B. Nuclear run-on assays determining the relative rates of hEAAT2 and GAPDH transcription as a function of 7-day treatment with the same concentrations of the indicated agents. C. A time course of mRNA expression of hEAAT2 and GAPDH following treatment with EGF, bromo-cAMP or TNF-α (same concentrations as in A.). D. Fold luciferase activity in PHFA transfected with flhEAAT2Prom-luc or various deletion mutants of hEAAT2 and non-transfected controls treated with the indicated compounds for four days.
(§2) Northern and Western Blotting Assays. Total cellular RNA was isolated by the guanidinium/phenol extraction method and Northern blotting was performed as described (Huang et al., 2001, Oncogene 20(48):7051-7063; Su et al., 2000, Oncogene 19(30):3411-3421; Su et al., 2001, Nucleic Acids Res 29(8):1661-1671). Western blotting assays were performed as described (Su et al., 1998, Proc Natl Acad Sci USA 95(24):14400-14405; Su et al., 2002, Oncogene 21(22):3592-602).
Positive and Negative Regulation of hEAAT2 Transcription, Promoter Activity and mRNA Levels in PHFA. Several enhancers of GLT-1 expression in rat astrocytes have been identified, including epidermal growth factor (EGF), transforming growth factor-α (TGF-α) and dibutyryl cyclic AMP (dbcAMP) (Swanson et al., 1997, J Neurosci 17(3):932-940; Zelenaia et al., 2000, Mol Pharmacol 57(4):667-678). Based on these considerations, experiments were performed to determine if these agents similarly modify human hEAAT2 expression in PHFA. Consistent with previous observations in rat astrocytes, 7-day treatment with EGF, TGF-α, and two analogs of cAMP, dbcAMP and bromo-cAMP, stimulated hEAAT2 mRNA expression in PHFA, whereas TNF-α decreased expression (FIG. 4B). […] In contrast, TNF-α decreased expression by 48 h (FIG. 4C).

For experiment [2], the system named is hEAAT2 transcription. The experiment can be described thus: Nuclear run-on assay of hEAAT2 transcription in PHFA. Conditions: 7-day treatment. The method, then:
as §1
Primer Extension Analysis and Nuclear Run-on Assays. Primer extension assays were performed as described (Su et al., 2000, Oncogene 19(30):3411-3421). A primer with the sequence 5′-[…]-3′ (SEQ ID NO:6) complementary to the 5′ UTR of the hEAAT2 cDNA was used for this assay. Nuclear run-on assays were performed as described (Su et al., 1997, Proc Natl Acad Sci USA 94(17):9125-9130).
To examine whether stimulation of hEAAT2 expression involves transcriptional changes, nuclear run-on assays were performed.

Experiment [3] deals with hEAAT2 promoter. The experiment can be described thus: flhEAAT2Prom-luc and deletion mutant luciferase reporter assay in PHFA treated with modulators. The settings on record: deletion mutant; for stimulation of promoter activity after deletion of bp −2426 to bp −703 / upregulation of promoter activity after deletion of bp −703 to bp −326: four day treatment. The method, then: as §1
Construction of hEAAT2 Promoter Deletion Mutants and Performance of the Luciferase Assays. 5′-deletion mutants of the hEAAT2 promoter were made with exonuclease III digestion using the Erase-A-Base System (Promega) as described for the PEG-3 promoter (Su et al., 2000, Oncogene 19(30):3411-3421). The flhEAAT2Prom-luc and flhEAAT2Prom-luc deletion mutants were cloned into the pGL3-basic luciferase reporter vector (Promega) and luciferase reporter assays were performed as described (Su et al., 2000, Oncogene 19(30):3411-3421; Su et al., 2001, Nucleic Acids Res 29(8):1661-1671), except that instead of using lipofectamine, which was toxic to PHFA, the calcium phosphate precipitation transfection technique was used (Babiss et al., 1986, Proc Natl Acad Sci USA 83(7):2167-2171).
Preferential Expression of the hEAAT2 Promoter in PHFA and Deletion Analysis of the hEAAT2 Promoter. hEAAT2 is expressed in brain-derived cells, mainly astrocytes (Tanaka et al., 1997, Science 276(5319):1699-1702; Anderson et al., 2000, Glia 32(1):1-14). Experiments were performed to confirm hEAAT2 promoter activity in normal human astrocytes and to determine expression levels in other cell types (FIG. 2A). Primary early passage and established human normal and tumor cell lines were co-transfected with a putative full-length ˜2.5 kb hEAAT2 promoter, a SacII fragment extending from bp −2426 to bp +44, was cloned into the pGL3-basic vector (Promega), where it drove expression of the firefly luciferase (luc) gene, and a pSV-β-galactosidase expression plasmid. Relative fold expression of a full length hEAAT2 promoter-luciferase (flhEAAT2Prom-luc) construct was determined as described (Su et al., 2000, Oncogene 19(30):3411-3421; Su et al., 2001, Nucleic Acids Res 29(8):1661-1671), and activity versus transfection with a pSV-β-galactosidase plasmid was calculated as described (Su et al., 2000, Oncogene 19(30):3411-3421; Su et al., 2001, Nucleic Acids Res 29(8):1661-1671) to equalize for differences in transfection efficiency.
To examine further the relationship between hEAAT2 and treatment with the various glutamate transporter modulators, transient transfection assays were performed in PHFA using the flhEAAT2Prom-luc constructs and various deletions thereof (FIG. 4D). […] In the case of dbcAMP, promoter activity was enhanced by ˜3-fold.
(In a reporter assay the amount or activity of a reporter protein is the signal.)

In experiment [4] the test system is hEAAT2 protein. The experiment is described as follows: Western blot of EAAT2 protein in PHFA. The method, then: (§3) FIG. 5A-E. Effect of pharmacological inhibitors on hEAAT2 promoter activity, and mRNA and protein expression in PHFA following various treatment protocols. A. hEAAT2 promoter activity in PHFA, either untreated (−) or treated with EGF (30 ng/ml), in the absence (−) or presence (+) of KT5720 (5 μM), AG1478 (1 μM), PDTC (100 μM), wortmannin (WRT) (100 nM) or PD98049 (PD) (50 μM). B. hEAAT2 promoter activity in PHFA, either untreated (−) or treated with bromo-cAMP (250 μM) in the absence (−) or presence (+) of KT5720 (5 μM), AG1478 (1 μM), PDTC (100 μM), wortmannin (WRT) (100 nM) or PD98049 (PD) (50 μM). C. hEAAT2 promoter activity in PHFA, either untreated (−) or treated with TNF-α (200 U/ml), in the absence (−) or presence (+) of KT5720 (5 μM), AG1478 (1 μM), PDTC (100 μM), wortmannin (WRT) (100 nM) or PD98049 (PD) (50 μM). D. The effect of the various treatment protocols on hEAAT2 and GAPDH mRNA levels. Upper panel presents relative hEAAT2 RNA expression versus GAPDH expression relative to control untreated or treated samples based on scanning of autoradiograms. Lower panel, actual Northern blots. E. The effect of the various treatment protocols on EAAT2 and ACTIN protein levels. Upper panel presents relative EAAT2 protein expression versus ACTIN expression relative to control untreated or treated samples based on scanning of autoradiograms. Individual experiments were performed 3 times using triplicate samples and S.D. from the mean is presented.
as §2
(A western blot detects proteins with antibodies after separation by electrophoresis.)

The subject of experiment [5] is hEAAT2 promoter activity, mRNA levels and protein levels. The experiment can be described thus: Pathway-specific inhibitors on modulated hEAAT2 promoter activity, mRNA and protein in PHFA. The settings on record: PDTC 100 μM, PD 50 μM; for effect on EGF (or TGF-α) enhancement of hEAAT2 promoter activity, mRNA and protein levels: EGF 30 ng/ml; for effect on EGF (or TGF-α) enhancement of hEAAT2 promoter activity, mRNA and protein levels / effect on bromo-cAMP (or dbcAMP) enhancement of hEAAT2 expression: KT5720 5 μM, AG1478 1 μM, wortmannin 100 nM; for effect on bromo-cAMP (or dbcAMP) enhancement of hEAAT2 expression: bromo-cAMP 250 μM. The method, then: as §3
Biochemical Basis for Positive and Negative Regulation of hEAAT2 Expression in PHFA. To define the biochemical pathways relevant to the regulation of hEAAT2 expression in PHFA resulting from the different treatment protocols, a pharmacological approach was employed. This involved the use of well-characterized pathway-specific inhibitors and determining effects on hEAAT2 promoter activity, mRNA levels and protein levels (FIG. 5). The inhibitors included, KT5720 (a protein kinase A. (PKA) inhibitor), AG1478 (a tyrosine kinase inhibitor), worttnannin (a phosphatidylinositol 3-kinase (PI-3K) inhibitor), pyrrolidinedithiocarbamate (PDTC, an inhibitor of NF-κB activation) and PD98059 (a mitogen-activated kinase (MEK1/MEK2) inhibitor) (Zelenaia et al., 2000, Mol Pharmacol 57(4):667-678).

Where only a bound is given, the exact number is not on record here.

As to “TGF-α: transforming growth factor-α, from Invitrogen”, in experiment [1], the “hEAAT2 mRNA expression” value is listed as “stimulated”. Also, the “relative rate of transcription of hEAAT2 RNA compared with GAPDH” value (“relative rate” below) in experiment [2] is “elevated”. Moreover, in experiment [3], the “promoter activity after further deletion of bp −326 to bp −120” value was “did not result in any additional reduction”, the “stimulation of promoter activity after deletion of bp −2426 to bp −703” value (shortened to “stimulation of promoter activity”) was “did not significantly decrease” and the “upregulation of promoter activity after deletion of bp −703 to bp −326” value (from here on “upregulation of promoter activity”) was “a level approximating that found in uninduced PHFA”. Moreover, the hEAAT2 protein levels entry in experiment [4] is “upregulated”.
As to `COc1cc2ncnc(Nc3cccc(Cl)c3)c2cc1OC` [AG1478], in experiment [5], the “effect on EGF (or TGF-α) enhancement of hEAAT2 promoter activity, mRNA and protein levels” value (“effect on EGF (or TGF-α) enhancement” below) was “abolished”; the “effect on bromo-cAMP (or dbcAMP) enhancement of hEAAT2 expression” value (from here on “effect on bromo-cAMP”) is “unaffected”.
As to `CCCCCCOC(=O)[C@]1(O)C[C@@H]2O[C@@]1(C)n1c3ccccc3c3c4c(c5c6ccccc6n2c5c31)C(=O)NC4` [KT5720], in experiment [5], the “effect on EGF (or TGF-α) enhancement” value is recorded as “unaffected”; the “effect on bromo-cAMP” value is “eliminated”.
`COc1cccc(-c2cc(=O)c3ccccc3o2)c1N` [PD98059]: in experiment [5], the “effect on EGF (or TGF-α) enhancement” value is “significantly inhibited but not extinguished”; the “effect on bromo-cAMP” value is on record as “partially inhibited”. Moreover, in experiment [5] (cotreatment with TNF-α 200 U/ml), the “effect on TNF-α-decreased hEAAT2 promoter, mRNA and protein levels” value is listed as “partial restoration of normal levels of hEAAT2 protein”.
Take “EGF: epidermal growth factor, from Invitrogen”: the “hEAAT2 mRNA expression” value in experiment [1] is “stimulated”. Moreover, in experiment [1] (time course), the “time of highest (maximum) hEAAT2 mRNA upregulation” value worked out at 48 h. In addition, in experiment [2], the “relative rate” value is recorded as “elevated”. Besides, in experiment [3], the “promoter activity after further deletion of bp −326 to bp −120” value is listed as “did not result in any additional reduction”, the “stimulation of promoter activity” value was “did not significantly decrease” and the “upregulation of promoter activity” value is “a level approximating that found in uninduced PHFA”. Besides, the hEAAT2 protein levels result in experiment [4] was “upregulated”.
Take `Nc1ncnc2c1nc(Br)n2[C@@H]1O[C@@H]2COP(=O)(O)O[C@H]2[C@H]1O` [bromo-cAMP]: the “hEAAT2 mRNA expression” value in experiment [1] is “stimulated”. Moreover, the “time of highest (maximum) hEAAT2 mRNA upregulation” value in experiment [1] (time course) turned out to be 48 h. Also, the “time by which hEAAT2 mRNA expression was changed” value in experiment [1] (time course, bromo-cAMP enhanced, TNF-α decreased) is reported as no more than 24 h. Further, the “relative rate” value in experiment [2] is “elevated”. Further, in experiment [3], the “stimulation of promoter activity” value is listed as “did not significantly decrease” and the “upregulation of promoter activity” value is reported as “most relevant”. Further, the hEAAT2 protein levels result in experiment [4] is on record as “upregulated”.
